Values of other authors in article PMC6347699 (Proceedings of the National Academy of Sciences of the …, 2019).
Entries after “also recorded” stand apart in the source; their conditions may differ. Ends that are not written are not given here.

What was measured:
[1] = tested on: Gram-negative enterobacteria; details: range of Gram-negative enterobacteria
[2] = harsh denaturing conditions

Substance	antimicrobial properties [1]	inhibition of RNAP backtracking (RNAP backtracking)	stability of structure and activity [2]	mode of inhibition with respect to NTPs (Eco RNAP)	Ki (Eco RNAP; read-out: Ki, inhibition of Eco RNAP in in vitro transcription reactions) [µM]	inhibition of Eco RNAP (Eco RNAP)
microcin J25 (GGAGHVPEYFVGIGTPISFYG; ends and bridges not checked; UniProt Q9X2V7 38-58, looked up) [MccJ25]	antimicrobial properties against a range of Gram-negative enterobacteria	inhibit RNAP backtracking	stable to harsh denaturing conditions	partially competitive; also recorded: partial competitive	~1	
klebsidin [reference compound]						inhibit Eco RNAP
acinetodin [reference compound]						inhibit Eco RNAP
